Experimental findings from patent US4230879A, “15-Deoxy-16-hydroxy-16-formyo or dimethoxy-methyl-prostane derivatives of the E and F series” (American Cyanamid Company, priority 1979, dated 1980) are described below.

This assay deals with Histamine. Description: KONZETT (Histamine). It is filed as in vivo. The settings on record: spasmogen histamine.

In general, ED50 refers to the dose that gives a 50% effect, or the effect in half of the subjects. Lower therefore signals greater potency.

`CCCCC(O)(C=O)C/C=C/[C@H]1[C@H](O)CC(=O)[C@@H]1CCCCCCC(=O)O` (relative stereo) [dl-11α,16α/β-dihydroxy-9-oxo-16-formyl-13-trans-prostenoic acid] came in with an ED50 of 8.89 µg/kg.
